Publication PMC3169401, “Structure of fructose bisphosphate aldolase from Bartonella henselae bound to fructose 1,6-bisphosphate” (Acta Crystallographica Section F: Structural Biology and …, 2011)

Columns and labels:
[1] = biological target: T1, BhFBPA (Bartonella henselae fructose bisphosphate aldolase) (Bartonella henselae, UniProt Q8L207); test: X-ray crystal structure of the complex ([…] A, cocrystallization); type: binding; settings: covalent; Schiff base of C2 of linear FBP with Lys223 at the active site; 10 mM FBP, pH 8.5, 290 K
T1 construct: gene fbab; full length, 343 residues; E. coli BL21(DE3) R3 Rosetta; 39495 Da; homotetramer; residues 1-340 modelled
T1 sequence (Q8L207 1-343): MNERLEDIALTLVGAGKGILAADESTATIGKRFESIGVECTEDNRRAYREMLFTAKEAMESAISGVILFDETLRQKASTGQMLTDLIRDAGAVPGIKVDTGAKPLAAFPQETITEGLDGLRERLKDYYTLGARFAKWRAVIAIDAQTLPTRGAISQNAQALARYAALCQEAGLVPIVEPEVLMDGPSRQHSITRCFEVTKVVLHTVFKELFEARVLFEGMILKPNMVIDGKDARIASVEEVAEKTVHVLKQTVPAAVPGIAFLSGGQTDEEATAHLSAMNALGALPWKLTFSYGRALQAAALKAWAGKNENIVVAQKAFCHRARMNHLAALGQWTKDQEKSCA

[2] = biological target: Bartonella henselae fructose bisphosphate aldolase (Bartonella henselae); test: crystal structure; cocrystallised with 10 mM fructose 1,6-bisphosphate, vapor diffusion at 290 K, 0.2 M sodium acetate, 0.1 M Tris pH 8.5, 30% PEG 4000; four monomers in the asymmetric unit; 2.35 A

For `O=P(O)(O)OC[C@H]1OC(O)(COP(=O)(O)O)[C@@H](O)[C@@H]1O` (some centres unmarked) [fructose 1,6-bisphosphate], which “X-ray crystal structure of the complex (2.35 A, cocrystallization)” value [1] is on record?
Its value is “This structure has clear electron density for FBP bound at the active site”.

For “Bartonella henselae fructose bisphosphate aldolase (enzyme)”, which stoichiometry N [2] is on record?
The stoichiometry N was 4.
